Results published in paper PMC10967822, “Antimicrobial Indole-3-Carboxamido-Polyamine Conjugates Target Bacterial Membranes and Are Antibiotic Potentiators” (Biomolecules, 2024).
In brackets after ≈: the same amount, converted by molar mass.

Test system: MRSA ATCC 43300
Experiment: MIC, broth microdilution (CO-ADD), MRSA
Format: cell-based, methicillin-resistant S. aureus
Settings: Staphylococcus aureus; MRSA ATCC 43300; top dose 32 µg/mL; read-out: MIC MRSA

SMILES	MIC
COc1cccc2c(C(=O)NCCCNCCCCCCCNCCCNC(=O)c3c[nH]c4c(OC)cccc34)c[nH]c12.O=C(O)C(F)(F)F.O=C(O)C(F)(F)F [Compound 17c]	2.44 µM
COc1cccc2c(C(=O)NCCCNCCCCCCCCNCCCNC(=O)c3c[nH]c4c(OC)cccc34)c[nH]c12 [Compound 17d]	≤ 0.3 µM
COc1cccc2c(C(=O)NCCCNCCCCCCCCCCNCCCNC(=O)c3c[nH]c4c(OC)cccc34)c[nH]c12.O=C(O)C(F)(F)F.O=C(O)C(F)(F)F [Compound 17e]	≤ 0.29 µM

Test system: C. neoformans ATCC 208821
Experiment: Antifungal MIC (CO-ADD), C. neoformans
Format: cell-based
Settings: Cryptococcus neoformans, ATCC208821, top dose 32 µg/mL
Description: For the antifungal assay, fungi strains were cultured for 3 days on YPD agar at 30 °C. A yeast suspension of 1 × 10^6 to 5 × 10^6 CFU/mL was prepared from five colonies. These stock suspensions were diluted with a yeast nitrogen base (YNB) (Becton Dickinson, 233520, New South Wales, Australia) broth to a final concentration of 2.5 × 10^3 CFU/mL. […] The plates were covered and incubated at 35 °C for 36 h without shaking. C. albicans MICs were determined by measuring the absorbance at OD530. For C. neoformans, resazurin was added at a 0.006% final concentration to each well and incubated for a further 3 h before the MICs were determined by measuring the absorbance at OD570–600. […] Fluconazole was used as a positive fungal inhibitor standard for C. albicans and C. neoformans. […] The quality control (QC) of the assays was determined by the antimicrobial controls and the Z′-factor (using positive and negative controls).

SMILES	MIC
COc1cccc2c(C(=O)NCCCNCCCCCCCNCCCNC(=O)c3c[nH]c4c(OC)cccc34)c[nH]c12.O=C(O)C(F)(F)F.O=C(O)C(F)(F)F [Compound 17c]	≤ 0.31 µM
COc1cccc2c(C(=O)NCCCNCCCCCCCCNCCCNC(=O)c3c[nH]c4c(OC)cccc34)c[nH]c12 [Compound 17d]	≤ 0.3 µM
COc1cccc2c(C(=O)NCCCNCCCCCCCCCCNCCCNC(=O)c3c[nH]c4c(OC)cccc34)c[nH]c12.O=C(O)C(F)(F)F.O=C(O)C(F)(F)F [Compound 17e]	≤ 0.29 µM

Test system: C. albicans ATCC 90028
Experiment: Antifungal MIC (CO-ADD), C. albicans
Format: cell-based
Settings: Candida albicans, ATCC90028, top dose 32 µg/mL
Method in brief: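 MIC for C. neoformans determined by OD570–600 following a further 3 h with resazurin (0.006% final), whereas C. albicans was read directly at OD530. Both grown static in YNB broth at 2.5 × 10^3 CFU/mL final inoculum, 35 °C for 36 h, from colonies cultured on YPD agar 3 days at 30 °C.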

SMILES	MIC
COc1cccc2c(C(=O)NCCCNCCCCCCCNCCCNC(=O)c3c[nH]c4c(OC)cccc34)c[nH]c12.O=C(O)C(F)(F)F.O=C(O)C(F)(F)F [Compound 17c]	> 39 µM
COc1cccc2c(C(=O)NCCCNCCCCCCCCNCCCNC(=O)c3c[nH]c4c(OC)cccc34)c[nH]c12 [Compound 17d]	> 38 µM
COc1cccc2c(C(=O)NCCCNCCCCCCCCCCNCCCNC(=O)c3c[nH]c4c(OC)cccc34)c[nH]c12.O=C(O)C(F)(F)F.O=C(O)C(F)(F)F [Compound 17e]	> 37 µM

Test system: E. coli ATCC 25922
Experiment: MIC, broth dilution, E. coli
Format: cell-based, Escherichia coli
Settings: Escherichia coli, ATCC25922; E. coli ATCC 25922, 18 h

SMILES	MIC
COc1cccc2c(C(=O)NCCCNCCCCCCCNCCCNC(=O)c3c[nH]c4c(OC)cccc34)c[nH]c12.O=C(O)C(F)(F)F.O=C(O)C(F)(F)F [Compound 17c]	244 µM
COc1cccc2c(C(=O)NCCCNCCCCCCCCNCCCNC(=O)c3c[nH]c4c(OC)cccc34)c[nH]c12 [Compound 17d]	240 µM (≈ 145 µg/mL)
COc1cccc2c(C(=O)NCCCNCCCCCCCCCCNCCCNC(=O)c3c[nH]c4c(OC)cccc34)c[nH]c12.O=C(O)C(F)(F)F.O=C(O)C(F)(F)F [Compound 17e]	> 232 µM

Test system: P. aeruginosa ATCC 27853
Experiment: Doxycycline potentiation against P. aeruginosa
Format: cell-based, Pseudomonas aeruginosa
Settings: doxycycline at 2 µg/mL (4.5 µM), P. aeruginosa ATCC 27853
Excerpt: (§1) These measurements were independently repeated in triplicate.

SMILES	Dox/Pa fold-change (intrinsic MIC / combination MIC)
COc1cccc2c(C(=O)NCCCNCCCCCCCNCCCNC(=O)c3c[nH]c4c(OC)cccc34)c[nH]c12.O=C(O)C(F)(F)F.O=C(O)C(F)(F)F [Compound 17c]	> 8 fold
COc1cccc2c(C(=O)NCCCNCCCCCCCCNCCCNC(=O)c3c[nH]c4c(OC)cccc34)c[nH]c12 [Compound 17d]	> 4 fold
COc1cccc2c(C(=O)NCCCNCCCCCCCCCCNCCCNC(=O)c3c[nH]c4c(OC)cccc34)c[nH]c12.O=C(O)C(F)(F)F.O=C(O)C(F)(F)F [Compound 17e]	> 4 fold

Same assay, conditions: doxycycline at 2 µg/mL (4.5 µM), P. aeruginosa ATCC 27853, mean n = 3

SMILES	Dox/Pa: concentration required to restore doxycycline activity (combination MIC)
COc1cccc2c(C(=O)NCCCNCCCCCCCNCCCNC(=O)c3c[nH]c4c(OC)cccc34)c[nH]c12.O=C(O)C(F)(F)F.O=C(O)C(F)(F)F [Compound 17c]	30.5 µM
COc1cccc2c(C(=O)NCCCNCCCCCCCCNCCCNC(=O)c3c[nH]c4c(OC)cccc34)c[nH]c12 [Compound 17d]	60.0 µM
COc1cccc2c(C(=O)NCCCNCCCCCCCCCCNCCCNC(=O)c3c[nH]c4c(OC)cccc34)c[nH]c12.O=C(O)C(F)(F)F.O=C(O)C(F)(F)F [Compound 17e]	58.1 µM

Test system: human red blood cells
Experiment: Hemolytic assay
Format: cell-based
Settings: 10% hemolytic activity, mean n = 2
Method in brief: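 Compounds were applied to saline-washed human red blood cells at 0.5 × 10^8 cells/mL, 37 °C, 1 h. Lysis was measured by supernatant absorbance at 405 nm, and concentrations giving 10% and 50% haemolysis were obtained by variable-slope curve fitting.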

SMILES	Hemolysis HC10
COc1cccc2c(C(=O)NCCCNCCCCCCCNCCCNC(=O)c3c[nH]c4c(OC)cccc34)c[nH]c12.O=C(O)C(F)(F)F.O=C(O)C(F)(F)F [Compound 17c]	>39 µM
COc1cccc2c(C(=O)NCCCNCCCCCCCCNCCCNC(=O)c3c[nH]c4c(OC)cccc34)c[nH]c12 [Compound 17d]	>38 µM
COc1cccc2c(C(=O)NCCCNCCCCCCCCCCNCCCNC(=O)c3c[nH]c4c(OC)cccc34)c[nH]c12.O=C(O)C(F)(F)F.O=C(O)C(F)(F)F [Compound 17e]	>37 µM

Test system: not listed separately
Experiment: Cytotoxicity assay (resazurin)
Format: cell-based
Settings: human, HEK293 cells, mean n = 2

SMILES	IC50 at 20 h
COc1cccc2c(C(=O)NCCCNCCCCCCCNCCCNC(=O)c3c[nH]c4c(OC)cccc34)c[nH]c12.O=C(O)C(F)(F)F.O=C(O)C(F)(F)F [Compound 17c]	> 39 µM
COc1cccc2c(C(=O)NCCCNCCCCCCCCNCCCNC(=O)c3c[nH]c4c(OC)cccc34)c[nH]c12 [Compound 17d]	> 38 µM
COc1cccc2c(C(=O)NCCCNCCCCCCCCCCNCCCNC(=O)c3c[nH]c4c(OC)cccc34)c[nH]c12.O=C(O)C(F)(F)F.O=C(O)C(F)(F)F [Compound 17e]	> 37 µM

Test system: A. baumannii ATCC 19606
Experiment: MIC, broth microdilution (CO-ADD), A. baumannii
Format: cell-based, Acinetobacter baumannii
Settings: Acinetobacter baumannii, ATCC19606, top dose 32 µg/mL

SMILES	MIC
COc1cccc2c(C(=O)NCCCNCCCCCCCNCCCNC(=O)c3c[nH]c4c(OC)cccc34)c[nH]c12.O=C(O)C(F)(F)F.O=C(O)C(F)(F)F [Compound 17c]	> 39 µM
COc1cccc2c(C(=O)NCCCNCCCCCCCCNCCCNC(=O)c3c[nH]c4c(OC)cccc34)c[nH]c12 [Compound 17d]	> 38 µM
COc1cccc2c(C(=O)NCCCNCCCCCCCCCCNCCCNC(=O)c3c[nH]c4c(OC)cccc34)c[nH]c12.O=C(O)C(F)(F)F.O=C(O)C(F)(F)F [Compound 17e]	> 37 µM

Test system: S. aureus ATCC 25923
Experiment: MIC, broth dilution, S. aureus
Format: cell-based, Staphylococcus aureus
Settings: Staphylococcus aureus, ATCC25923; S. aureus ATCC 25923, 18 h; read-out: MIC Sa

SMILES	MIC
COc1cccc2c(C(=O)NCCCNCCCCCCCNCCCNC(=O)c3c[nH]c4c(OC)cccc34)c[nH]c12.O=C(O)C(F)(F)F.O=C(O)C(F)(F)F [Compound 17c]	122 µM
COc1cccc2c(C(=O)NCCCNCCCCCCCCNCCCNC(=O)c3c[nH]c4c(OC)cccc34)c[nH]c12 [Compound 17d]	120 µM (≈ 72.6 µg/mL)
COc1cccc2c(C(=O)NCCCNCCCCCCCCCCNCCCNC(=O)c3c[nH]c4c(OC)cccc34)c[nH]c12.O=C(O)C(F)(F)F.O=C(O)C(F)(F)F [Compound 17e]	232 µM

Test system: E. coli ATCC 25922
Experiment: Erythromycin potentiation against E. coli
Format: cell-based, Escherichia coli
Settings: erythromycin at 2 µg/mL (2.7 µM), E. coli
Excerpt: as §1

SMILES	Erythro/Ec fold-change (intrinsic MIC / combination MIC)
COc1cccc2c(C(=O)NCCCNCCCCCCCNCCCNC(=O)c3c[nH]c4c(OC)cccc34)c[nH]c12.O=C(O)C(F)(F)F.O=C(O)C(F)(F)F [Compound 17c]	1 fold
COc1cccc2c(C(=O)NCCCNCCCCCCCCNCCCNC(=O)c3c[nH]c4c(OC)cccc34)c[nH]c12 [Compound 17d]	2 fold
COc1cccc2c(C(=O)NCCCNCCCCCCCCCCNCCCNC(=O)c3c[nH]c4c(OC)cccc34)c[nH]c12.O=C(O)C(F)(F)F.O=C(O)C(F)(F)F [Compound 17e]	1 fold

Same assay, conditions: erythromycin at 2 µg/mL (2.7 µM), mean n = 3

SMILES	Erythro/Ec: concentration required to restore erythromycin activity (combination MIC)
COc1cccc2c(C(=O)NCCCNCCCCCCCNCCCNC(=O)c3c[nH]c4c(OC)cccc34)c[nH]c12.O=C(O)C(F)(F)F.O=C(O)C(F)(F)F [Compound 17c]	244 µM
COc1cccc2c(C(=O)NCCCNCCCCCCCCNCCCNC(=O)c3c[nH]c4c(OC)cccc34)c[nH]c12 [Compound 17d]	120 µM
COc1cccc2c(C(=O)NCCCNCCCCCCCCCCNCCCNC(=O)c3c[nH]c4c(OC)cccc34)c[nH]c12.O=C(O)C(F)(F)F.O=C(O)C(F)(F)F [Compound 17e]	> 232 µM

Test system: K. pneumoniae ATCC 700603
Experiment: MIC, broth microdilution (CO-ADD), K. pneumoniae
Settings: top dose 32 µg/mL

SMILES	MIC Kp
COc1cccc2c(C(=O)NCCCNCCCCCCCNCCCNC(=O)c3c[nH]c4c(OC)cccc34)c[nH]c12.O=C(O)C(F)(F)F.O=C(O)C(F)(F)F [Compound 17c]	>39 µM
COc1cccc2c(C(=O)NCCCNCCCCCCCCNCCCNC(=O)c3c[nH]c4c(OC)cccc34)c[nH]c12 [Compound 17d]	>38 µM
COc1cccc2c(C(=O)NCCCNCCCCCCCCCCNCCCNC(=O)c3c[nH]c4c(OC)cccc34)c[nH]c12.O=C(O)C(F)(F)F.O=C(O)C(F)(F)F [Compound 17e]	>37 µM

Test system: P. aeruginosa ATCC 27853
Experiment: MIC, broth dilution, P. aeruginosa
Format: cell-based, Pseudomonas aeruginosa
Settings: Pseudomonas aeruginosa, ATCC27853; P. aeruginosa ATCC 27853, 18 h; read-out: MIC Pa

SMILES	MIC
COc1cccc2c(C(=O)NCCCNCCCCCCCNCCCNC(=O)c3c[nH]c4c(OC)cccc34)c[nH]c12.O=C(O)C(F)(F)F.O=C(O)C(F)(F)F [Compound 17c]	> 244 µM
COc1cccc2c(C(=O)NCCCNCCCCCCCCNCCCNC(=O)c3c[nH]c4c(OC)cccc34)c[nH]c12 [Compound 17d]	> 240 µM
COc1cccc2c(C(=O)NCCCNCCCCCCCCCCNCCCNC(=O)c3c[nH]c4c(OC)cccc34)c[nH]c12.O=C(O)C(F)(F)F.O=C(O)C(F)(F)F [Compound 17e]	> 232 µM
